Source: US8188064B2, “Vitamin D analogs for obesity prevention and treatment” (Wisconsin Alumni Research Foundation, priority 2003, dated 2012)
Entries after “also recorded” stand apart in the source; their conditions may differ.

How the values were obtained:
[1] = Hypercalcemia / serum calcium analysis; assay type: in vivo, rat
[2] = system: parathyroid hormone (PTH); assay: PTH suppression (serum PTH); assay type: in vivo, rat; settings: result in words; normal/adult rats
Protocol: Adult, female Sprague-Dawley rats were obtained from Harlan (Madison, Wis.).
Upon receipt, the animals were identified by individual tail marks. Animals were housed in suspended, stainless steel, wire-bottom cages. Each cage contained one animal. The animal rooms were maintained at a temperature of 68 to 72° F. and a relative humidity of 25 to 75%. The holding rooms were set to provide 12 hours of light per day. Water and a purified rodent diet (Suda et al., Purified Rodent Diet-Diet 11) containing […] 0.3% phosphorus and fat soluble vitamins A, D, E and K were provided ad libitum.
Animals were randomly assigned to treatment groups (5 animals/group). All doses were administered intraperitoneally in 100 microliters of propylene glycol. Four to seven consecutive doses were given approximately 24 hours apart. Dosing was initiated after the animals had been allowed to acclimate for at least one week.
Both control and test articles were administered by intraperitoneal injection in 100 microliters for 4-7 consecutive days spaced approximately 24 hours apart. 1,25(OH)2D3 was given for 4 consecutive days, whereas, the test drugs were given for 7 consecutive days.
Twenty-four hours after the final dose, blood was collected from the tail artery and the concentration of bioactive serum PTH was measured using the rat BioActive Intact PTH ELISA Kit from Immutopics, Inc. (San Clemente, Calif.).

[3] = Bone calcium mobilization (serum calcium on low calcium diet); assay type: in vivo, rat; settings: for bone calcium mobilization activity: result in words, vitamin D deficient rat model, compared to 1α,25(OH)2D3
Protocol: (§1) Male, weanling Sprague-Dawley rats were placed on Diet 11 (0.47% Ca) diet+AEK for one week followed by Diet 11 (0.02% Ca)+AEK for 3 weeks. The rats were then switched to a diet containing 0.47% Ca for one week followed by two weeks on a diet containing 0.02% Ca. Dose administration began during the last week on 0.02% calcium diet. Four consecutive ip doses were given approximately 24 hours apart. Twenty-four hours after the last dose, blood was collected from the severed neck and the concentration of serum calcium determined as a measure of bone calcium mobilization. The first 10 cm of the intestine was also collected for intestinal calcium transport analysis using the everted gut sac method.

[4] = system: 24-hydroxylase (24Ohase) gene promoter in ROS 17/2.8 (bone) cells; assay: In vitro transcription assay (luciferase reporter); assay type: cell-based; settings: for transcriptional activity in bone cells, compared to 1α,25(OH)2D3: result in words
Protocol: Transcription activity was measured in ROS 17/2.8 (bone) cells that were stably transfected with a 24-hydroxylase (24Ohase) gene promoter upstream of a luciferase reporter gene (Arbour et al., 1998). Cells were given a range of doses. Sixteen hours after dosing the cells were harvested and luciferase activities were measured using a luminometer. RLU=relative luciferase units.

[5] = system: Human promyelocytic leukemia (HL60) cells; assay: HL-60 differentiation (nitro blue tetrazolium reduction); assay type: cell-based
Protocol: The study drugs were dissolved in ethanol and the concentrations determined using UV spectrophotometry. Serial dilutions were prepared so that a range of drug concentrations could be tested without changing the final concentration of ethanol (≦0.2%) present in the cell cultures.
Human promyelocytic leukemia (HL60) cells were grown in RPMI-1640 medium containing 10% fetal bovine serum. The cells were incubated at 37° C. in the presence of 5% CO2.
HL60 cells were plated at 1.2×10^5 cells/ml. Eighteen hours after plating, cells in duplicate were treated with drug. Four days later, the cells were harvested and a nitro blue tetrazolium reduction assay was performed (Collins et al., 1979; J. Exp. Med. 149:969-974). The percentage of differentiated cells was determined by counting a total of 200 cells and recording the number that contained intracellular black-blue formazan deposits. Verification of differentiation to monocytic cells was determined by measuring phagocytic activity (data not shown).

[6] = system: 3T3-L1 cells; assay: Inhibition of 3T3-L1 differentiation into mature adipocytes (Oil-Red-O staining); assay type: cell-based, murine; settings: for inhibition of differentiation of 3T3-L1 cells into mature adipocytes (Oil-Red-O staining): result in words, MDI-treated cells, staining at day 10
Protocol: Various 19-nor vitamin D analogs were or are tested and found to inhibit the differentiation of preadipocytes into mature adipocytes, to reduce body fat, to inhibit an increase in PPARγ, C/EBPα, and/or SCD-1 gene transcription and to be useful in treating and preventing obesity both in vivo and in vitro. The undifferentiated preadipocyte 3T3-L1 subline, a derivative of the original mouse fibroblast cell line, is one of the most accepted models for investigating the adipogenesis process and was used for the analysis. Two days after reaching confluence, 3T3-L1 cells can be induced to differentiate into adipocytes (see Mackall, J. C. et al. J. Biol. Chem., 251(20), 6462-6464 (1976)) with the addition of a cAMP phosphodiesterase inhibitor, dexamethasone (a glucocortoid), and insulin. […] The induction of PPARγ and C/EBPα is required for adipocyte differentiation. […] SCD-1 is an enzyme found in adipocytes that converts saturated fatty acids (C16 and C18) to their monounsaturated forms (C16:1 and C18:1). The deposition of triglyceride can also be detected as early as 3 days, and by the 7th to 14th days post-confluence, greater than 80% of the cells in the monolayer stain positively with Oil-red-O.

[7] = target: T1, full-length recombinant rat vitamin D receptor (Rattus norvegicus, UniProt P13053); assay: Vitamin D receptor binding (competition with 3H-1,25(OH)2D3); settings: for binding to the vitamin D receptor, compared to 1α,25(OH)2D3: result in words, competition for tritiated hormone binding
T1 construct: Full-length recombinant rat receptor was expressed in E. coli; histidine tag (C); made in house; host or cells: E. coli BL21(DE3) Codon Plus RIL
T1 sequence (P13053 1-423): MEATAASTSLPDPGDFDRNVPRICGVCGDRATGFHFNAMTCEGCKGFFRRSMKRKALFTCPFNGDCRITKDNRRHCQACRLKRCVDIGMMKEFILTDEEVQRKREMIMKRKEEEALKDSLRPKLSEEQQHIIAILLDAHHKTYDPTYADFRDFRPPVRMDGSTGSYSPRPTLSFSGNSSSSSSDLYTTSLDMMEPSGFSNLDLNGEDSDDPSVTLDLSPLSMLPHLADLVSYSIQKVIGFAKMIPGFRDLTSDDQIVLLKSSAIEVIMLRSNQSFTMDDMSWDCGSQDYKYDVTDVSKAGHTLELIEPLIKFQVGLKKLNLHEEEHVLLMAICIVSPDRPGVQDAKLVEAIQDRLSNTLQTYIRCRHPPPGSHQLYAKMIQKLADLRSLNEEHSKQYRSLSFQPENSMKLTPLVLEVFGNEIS
Protocol: Full-length recombinant rat receptor was expressed in E. coli BL21(DE3) Codon Plus RIL cells and purified to homogeneity using two different column chromatography systems. The first system was a nickel affinity resin that utilizes the C-terminal histidine tag on this protein. The protein that was eluted from this resin was further purified using ion exchange chromatography (S-Sepharose Fast Flow). Aliquots of the purified protein were quick frozen in liquid nitrogen and stored at −80° C. until use. For use in binding assays, the protein was diluted in TEDK50 (50 mM Tris, 1.5 mM EDTA, pH 7.4, 5 mM DTT, 150 mM KCl) with 0.1% Chaps detergent. The receptor protein and ligand concentration was optimized such that no more than 20% of the added radiolabeled ligand was bound to the receptor.
Unlabeled ligands were dissolved in ethanol and the concentrations determined using UV spectrophotometry (1,25(OH)2D3: molar extinction coefficient=18,200 and λmax=265 nm; Analogs: molar extinction coefficient=42,000 and λmax=252 nm). Radiolabeled ligand (^3H-1,25(OH)2D3, ˜159 Ci/mmole) was added in ethanol at a final concentration of 1 nM.
Radiolabeled and unlabeled ligands were added to 100 mcl of the diluted protein at a final ethanol concentration of ≦10%, mixed and incubated overnight on ice to reach binding equilibrium. The following day, 100 mcl of hydroxylapatite slurry (50%) was added to each tube and mixed at 10-minute intervals for 30 minutes. The hydroxylapaptite was collected by centrifugation and then washed three times with Tris-EDTA buffer (50 mM Tris, 1.5 mM EDTA, pH 7.4) containing 0.5% Titron X-100. After the final wash, the pellets were transferred to scintillation vials containing 4 ml of Biosafe II scintillation cocktail, mixed and placed in a scintillation counter. Total binding was determined from the tubes containing only radiolabeled ligand.

[8] = Intestinal calcium transport (everted gut sac); assay type: in vivo; settings: result in words, vitamin D deficient rat model, compared to 1α,25(OH)2D3
Protocol: as §1

[9] = system: SCD-1 mRNA; assay: Inhibition of SCD-1 mRNA induction in 3T3-L1 cells (RT-PCR); assay type: cell-based, murine; settings: for inhibition of SCD-1 mRNA induction: result in words, MDI-treated 3T3-L1 cells
From the text: Chomczynski, P. et al., Anal. […] NO: 4)).

[10] = system: PPARγ2 mRNA; assay: PPARγ2 mRNA induction by MDI in 3T3-L1 cells (RT-PCR); assay type: cell-based, murine; settings: compound present at 1×10^−10 M
Protocol: RT-PCR was carried out as described above with 0.5 μM each primer, 2 mM MgCl2, and 1×SYBR Green master mix.

[11] = system: C/EBPα mRNA; assay: C/EBPα mRNA induction by MDI in 3T3-L1 cells (RT-PCR); assay type: cell-based, murine; settings: compound present at 1×10^−10 M
Protocol: Analysis of C/EBPα was determined by PCR using murine primers (upstream=CGA GTA GGG GGA GCA AAA A (SEQ ID NO: 7); downstream=GCA AAA AGC MG GGA TTA GGA G (SEQ ID NO: 8)). RT-PCR was carried out as described above with 0.5 μM each primer, 2 mM MgCl2, and 1×SYBR Green master mix. The murine C/EBPα primers have a 60° C. annealing temperature and a 12 second extension time.

Row | bone calcium mobilization activity [3] | binding to the vitamin D receptor, compared to 1α,25(OH)2D3 [7] | intestinal calcium transport activity [8] | SMILES | suppression of parathyroid hormone (PTH) [2] | transcriptional activity in bone cells, compared to 1α,25(OH)2D3 [4] | inhibition of differentiation of 3T3-L1 cells into mature adipocytes (Oil-Red-O staining) [6] | differentiation of HL-60 cells, times less active than 1α,25(OH)2D3 [5] | further results
1 | does not support | approximately equally effective | does not support | C=C1[C@H](O)CC(=C/C=C2\CCC[C@]3(C)[C@@H]([C@H](C)CC)CC[C@@H]23)C[C@H]1O [(20R)2MbisP] | considerable activity | – | nearly equipotent | about 5 times | hypercalcemia in adult rats ([1]; doses as high as 45 nmol/day): failed to cause hypercalcemia; bone calcium mobilization activity ([3]; listed as (20R)2-MbisP): very little bone calcium mobilization activity; transcription of reporter gene coupled to the CYP-24 promoter, times less active than 1α,25-(OH)2D3 ([4]; less active than 1α,25-(OH)2D3): about 5 times; inhibition of differentiation of MDI-treated 3T3-L1 cells (oil-red-O staining) ([6]; tested at 1×10^−8.5 M): active; intestinal calcium transport activity ([8]; listed as (20R)2-MbisP): less activity; inhibition of SCD1 mRNA induction ([9]; tested at 1×10^−8.5 M): active
2 | active | as well as the native hormone | active | C=C1[C@H](O)CC(=C/C=C2\CCC[C@]3(C)[C@@H]([C@@H](C)CCCC(C)(C)O)CC[C@@H]23)C[C@H]1O [2-MD] | – | – | highest activity; also recorded: so much greater; also recorded: inhibit | – | PPARγ mRNA induction by MDI [10]: prevented these mRNAs from being upregulated; also recorded: not induced; EC50 ([9]; Mus musculus, 3T3-L1, 96 h, SCD-1 mRNA at 4 days, read-out: EC50 for inhibition of murine 3T3-L1 expression of SCD-1 mRNA): ~2.9 pM; times more potent than the native hormone calcitriol ([9]; inhibition of 3T3-L1 differentiation (FIG. 2 and FIG. 3)): at least 70 times; C/EBPα mRNA induction by MDI [11]: prevented these mRNAs from being upregulated; also recorded: not induced
3 | no calcemic activity | – | no calcemic activity | C=C1[C@H](O)CC(=C/C=C2\CCC[C@]3(C)[C@@H](CCC)CC[C@@H]23)C[C@H]1O [19,21-dinor, 2-methylene-19,21-dinor-1α-hydroxybishomopregnacalciferol] | significant activity | active | – | about 15 times | vitamin D receptor binding, times less active than 1α,25-dihydroxyvitamin D3 ([7]; less active than 1α,25-dihydroxyvitamin D3): about 5 times

Row | SMILES | bone calcium mobilization activity [3] | binding to the vitamin D receptor, compared to 1α,25(OH)2D3 [7] | intestinal calcium transport activity [8] | suppression of parathyroid hormone (PTH) [2] | transcriptional activity in bone cells, compared to 1α,25(OH)2D3 [4] | inhibition of differentiation of 3T3-L1 cells into mature adipocytes (Oil-Red-O staining) [6] | differentiation of HL-60 cells, times less active than 1α,25(OH)2D3 [5] | further results
4 | C=C1[C@H](O)CC(=C/C=C2\CCC[C@]3(C)[C@@H]([C@@H](C)CCC)CC[C@@H]23)C[C@H]1O [2MtrisP] | very little bone calcium mobilization activity | almost equal to the native hormone; also recorded: as or nearly effective as calcitriol | some ability to elevate intestinal calcium transport; also recorded: less activity | remarkably effective | within one order of magnitude | increased slightly | – | serum calcium concentrations ([1]; adult rats, PTH suppression study): not raising serum calcium concentrations; bone calcium mobilizing activity ([3]; very high dose of 2340 pmol/day): little bone calcium mobilizing activity; differentiation of HL-60 cells, compared to 1α,25(OH)2D3 ([5]; result in words): equal in activity; inhibition of differentiation of 3T3-L1 cells into mature adipocytes (Oil-Red-O staining) ([6]; listed as (20S)2M-trisP): still possess activity; inhibition of SCD-1 mRNA induction [9]: increased slightly; inhibition of SCD-1 mRNA induction ([9]; listed as (20S)2M-trisP): still possess activity
